Laboratory results as given in patent US20250042905A1, “DIHYDROPYRROLO[3,4-C]PYRAZOLE DERIVATIVES AND THEIR USE IN DIAGNOSIS” (AC IMMUNE SA, priority 2021, published 2025).
Like-named read-outs stand apart in the source and are kept apart here.

Biological target: T1, PD brain-derived alpha-synuclein aggregates (Homo sapiens, UniProt P37840)
T1 construct: PD brain-derived alpha-synuclein aggregates were spotted onto microarray slides; from tissue; host or cells: human Parkinson's disease patient brain
Assay: Micro-radiobinding competition assay for the determination of binding affinity
Settings: for inhibition at 0.1 µM: read-out: Competition at 100 nM (%); for inhibition at 1 µM: read-out: Competition at 1 μM (%); for Ki: concentration range 0.05 nM to 2 μM, nonlinear regression, one site specific binding model
Protocol: Micro-Radiobinding Competition Assay for the Determination of Binding Affinity
PD brain-derived alpha-synuclein aggregates were spotted onto microarray slides. The slides were incubated with tritiated reference alpha-synuclein ligand at 20 nM or 30 nM and the example compounds (non-radiolabelled) at 1 μM and 100 nM. In some cases, the non-radiolabelled example compounds were further assessed for a range of different concentrations, varying from 0.05 nM to 2 μM. After incubation, slides were washed and scanned by a real-time autoradiography system (BeaQuant, ai4R). Quantification of the signal was performed by using the Beamage image analysis software (ai4R). Non-specific signal was determined with an excess of non-radiolabelled reference alpha-synuclein ligand (2 μM) and specific binding was calculated by subtracting the non-specific signal from the total signal. Competition was calculated as percent, where 0% was defined as the specific binding in the presence of vehicle and 100% as the values obtained in the presence of excess of the non-radiolabelled reference alpha-synuclein ligand. Ki values were calculated in GraphPad Prism7 by applying a nonlinear regression curve fit using a one site, specific binding model. All measurements were performed with at least two technical replicates.
Table 4: Assessment of binding affinity by micro-radiobinding competition assay on human PD brain-derived alpha-synuclein aggregates.

[1] = non-radiolabelled example compound at 100 nM, competition with tritiated reference alpha-synuclein ligand (20 nM or 30 nM), 100% = excess non-radiolabelled reference ligand
[2] = non-radiolabelled example compound at 1 μM, competition with tritiated reference alpha-synuclein ligand (20 nM or 30 nM), 100% = excess non-radiolabelled reference ligand

Compound	inhibition at 0.1 µM [1] [%]	inhibition at 1 µM [2] [%]	inhibition at 0.1 µM [%]	inhibition at 1 µM [%]	Ki [nM]
O=C1c2cn(-c3cnc(N4CC[C@@H](F)C4)cn3)nc2CN1c1cccnc1 [Example 1, (R)-2-(5-(3-fluoropyrrolidin-1-yl)pyrazin-2-yl)-5-(pyridin-3-yl)-5,6-dihydropyrrolo[3,4-c]pyrazol-4(2H)-one]	89	95	–	–	–
O=C1c2cn(-c3cnc(N4CC[C@H](F)C4)cn3)nc2CN1c1cccnc1 [Example 2, (S)-2-(5-(3-fluoropyrrolidin-1-yl)pyrazin-2-yl)-5-(pyridin-3-yl)-5,6-dihydropyrrolo[3,4-c]pyrazol-4(2H)-one]	–	–	74	98	–
O=C1c2cn(-c3cnc(N4CCCCC(F)C4)cn3)nc2CN1c1cccnc1 (stereo not drawn) [Example 5, 2-(5-(3-fluoroazepan-1-yl)pyrazin-2-yl)-5-(pyridin-3-yl)-5,6-dihydropyrrolo[3,4-c]pyrazol-4(2H)-one]	39	68	–	–	–
COc1cncc(N2Cc3nn(-c4cnc(N5CC[C@@H](F)C5)cn4)cc3C2=O)c1 [Example 7, (R)-2-(5-(3-fluoropyrrolidin-1-yl)pyrazin-2-yl)-5-(5-methoxypyridin-3-yl)-5,6-dihydropyrrolo[3,4-c]pyrazol-4(2H)-one]	–	–	48	69	–
Cn1cc(N2Cc3nn(-c4cnc(N5CCCCC(F)C5)cn4)cc3C2=O)cn1 (stereo not drawn) [Example 8, 2-(5-(3-fluoroazepan-1-yl)pyrazin-2-yl)-5-(1-methyl-1H-pyrazol-4-yl)-5,6-dihydropyrrolo[3,4-c]pyrazol-4(2H)-one]	45	78	–	–	33
O=C1c2cn(-c3cnc(N4CC[C@@H](F)C4)cn3)nc2CN1c1cncs1 [Example 9, (R)-2-(5-(3-fluoropyrrolidin-1-yl)pyrazin-2-yl)-5-(thiazol-5-yl)-5,6-dihydropyrrolo[3,4-c]pyrazol-4(2H)-one]	–	–	106	–	10
COc1cncc(N2Cc3nn(-c4cnc(N5CC[C@H](F)C5)cn4)cc3C2=O)c1 [Example 10, (S)-2-(5-(3-fluoropyrrolidin-1-yl)pyrazin-2-yl)-5-(5-methoxypyridin-3-yl)-5,6-dihydropyrrolo[3,4-c]pyrazol-4(2H)-one]	–	–	59	82	–
COc1cncc(N2Cc3nn(-c4cnc(N5CC(F)C5)cn4)cc3C2=O)c1 [Example 11, 2-(5-(3-fluoroazetidin-1-yl)pyrazin-2-yl)-5-(5-methoxypyridin-3-yl)-5,6-dihydropyrrolo[3,4-c]pyrazol-4(2H)-one]	–	–	41	69	–
O=C1c2cn(-c3cnc(N4CC[C@H](F)C4)cn3)nc2CN1c1cncs1 [Example 12, (S)-2-(5-(3-fluoropyrrolidin-1-yl)pyrazin-2-yl)-5-(thiazol-5-yl)-5,6-dihydropyrrolo[3,4-c]pyrazol-4(2H)-one]	–	–	50	–	–
O=C1c2cn(-c3cnc(N4CCCC(F)CC4)cn3)nc2CN1c1cccnc1 (stereo not drawn) [Example 15, 2-(5-(4-fluoroazepan-1-yl)pyrazin-2-yl)-5-(pyridin-3-yl)-5,6-dihydropyrrolo[3,4-c]pyrazol-4(2H)-one]	39	67	–	–	–
Cc1ccc(N2Cc3nn(-c4cnc(N5CC[C@@H](F)C5)cn4)cc3C2=O)cn1 [Example 17, (R)-2-(5-(3-fluoropyrrolidin-1-yl)pyrazin-2-yl)-5-(6-methylpyridin-3-yl)-5,6-dihydropyrrolo[3,4-c]pyrazol-4(2H)-one]	46	91	–	–	–
Cc1ccc(N2Cc3nn(-c4cnc(N5CC[C@H](F)C5)cn4)cc3C2=O)cn1 [Example 18, (S)-2-(5-(3-fluoropyrrolidin-1-yl)pyrazin-2-yl)-5-(6-methylpyridin-3-yl)-5,6-dihydropyrrolo[3,4-c]pyrazol-4(2H)-one]	38	82	–	–	–
Cc1ccc(N2Cc3nn(-c4cnc(N5CC(F)C5)cn4)cc3C2=O)cn1 [Example 19, 2-(5-(3-fluoroazetidin-1-yl)pyrazin-2-yl)-5-(6-methylpyridin-3-yl)-5,6-dihydropyrrolo[3,4-c]pyrazol-4(2H)-one]	44	74	–	–	–
O=C1c2cn(-c3ccc(N4CC[C@@H](F)C4)nn3)nc2CN1c1cccnc1 [Example 20, (R)-2-(6-(3-fluoropyrrolidin-1-yl)pyridazin-3-yl)-5-(pyridin-3-yl)-5,6-dihydropyrrolo[3,4-c]pyrazol-4(2H)-one]	38	74	–	–	422
Cn1cc(N2Cc3nn(-c4ccc(N5CC[C@@H](F)C5)nn4)cc3C2=O)cn1 [Example 21, (R)-2-(6-(3-fluoropyrrolidin-1-yl)pyridazin-3-yl)-5-(1-methyl-1H-pyrazol-4-yl)-5,6-dihydropyrrolo[3,4-c]pyrazol-4(2H)-one]	65	86	–	–	–
O=C1c2cn(-c3ccc(N4CC[C@@H](F)C4)nn3)nc2CN1c1cncs1 [Example 22, (R)-2-(6-(3-fluoropyrrolidin-1-yl)pyridazin-3-yl)-5-(thiazol-5-yl)-5,6-dihydropyrrolo[3,4-c]pyrazol-4(2H)-one]	30	–	–	–	–
COc1cncc(N2Cc3nn(-c4ccc(N5CC[C@@H](F)C5)nn4)cc3C2=O)c1 [Example 23, (R)-2-(6-(3-fluoropyrrolidin-1-yl)pyridazin-3-yl)-5-(5-methoxypyridin-3-yl)-5,6-dihydropyrrolo[3,4-c]pyrazol-4(2H)-one]	65	76	–	–	182
O=C1c2cn(-c3ccc(N4CC[C@H](F)C4)nn3)nc2CN1c1cccnc1 [Example 24, (S)-2-(6-(3-fluoropyrrolidin-1-yl)pyridazin-3-yl)-5-(pyridin-3-yl)-5,6-dihydropyrrolo[3,4-c]pyrazol-4(2H)-one]	30	77	–	–	236
O=C1c2cn(-c3ccc(N4CC[C@H](F)C4)nn3)nc2CN1c1cncs1 [Example 25, (S)-2-(6-(3-fluoropyrrolidin-1-yl)pyridazin-3-yl)-5-(thiazol-5-yl)-5,6-dihydropyrrolo[3,4-c]pyrazol-4(2H)-one]	17	73	–	–	222
Cn1cc(N2Cc3nn(-c4ccc(N5CC[C@H](F)C5)nn4)cc3C2=O)cn1 [Example 26, (S)-2-(6-(3-fluoropyrrolidin-1-yl)pyridazin-3-yl)-5-(1-methyl-1H-pyrazol-4-yl)-5,6-dihydropyrrolo[3,4-c]pyrazol-4(2H)-one]	8	76	–	–	–
COc1cncc(N2Cc3nn(-c4ccc(N5CC[C@H](F)C5)nn4)cc3C2=O)c1 [Example 27, (S)-2-(6-(3-fluoropyrrolidin-1-yl)pyridazin-3-yl)-5-(5-methoxypyridin-3-yl)-5,6-dihydropyrrolo[3,4-c]pyrazol-4(2H)-one]	50	57	–	–	–
O=C1c2cn(-c3ccc(N4CCCC(F)CC4)nn3)nc2CN1c1cccnc1 (stereo not drawn) [Example 28, 2-(6-(4-fluoroazepan-1-yl)pyridazin-3-yl)-5-(pyridin-3-yl)-5,6-dihydropyrrolo[3,4-c]pyrazol-4(2H)-one]	17	51	–	–	–
Cc1ccc(N2Cc3nn(-c4ccc(N5CC[C@@H](F)C5)nn4)cc3C2=O)cn1 [Example 29, (R)-2-(6-(3-fluoropyrrolidin-1-yl)pyridazin-3-yl)-5-(6-methylpyridin-3-yl)-5,6-dihydropyrrolo[3,4-c]pyrazol-4(2H)-one]	15	42	–	–	–
Cc1ccc(N2Cc3nn(-c4ccc(N5CC[C@H](F)C5)nn4)cc3C2=O)cn1 [Example 30, (S)-2-(6-(3-fluoropyrrolidin-1-yl)pyridazin-3-yl)-5-(6-methylpyridin-3-yl)-5,6-dihydropyrrolo[3,4-c]pyrazol-4(2H)-one]	4	39	–	–	–
O=C1c2cn(-c3ccc(N4CC[C@@H](F)C4)nn3)nc2CN1c1ccns1 [Example 31, (R)-2-(6-(3-fluoropyrrolidin-1-yl)pyridazin-3-yl)-5-(isothiazol-5-yl)-5,6-dihydropyrrolo[3,4-c]pyrazol-4(2H)-one]	71	86	–	–	–
O=C1c2cn(-c3ccc(N4CC[C@H](F)C4)nn3)nc2CN1c1ccns1 [Example 32, (S)-2-(6-(3-fluoropyrrolidin-1-yl)pyridazin-3-yl)-5-(isothiazol-5-yl)-5,6-dihydropyrrolo[3,4-c]pyrazol-4(2H)-one]	61	77	–	–	–
O=C1c2cn(-c3ccc(N4CCCCC(F)C4)nn3)nc2CN1c1cccnc1 (stereo not drawn) [Example 33, 2-(6-(3-fluoroazepan-1-yl)pyridazin-3-yl)-5-(pyridin-3-yl)-5,6-dihydropyrrolo[3,4-c]pyrazol-4(2H)-one]	6	35	–	–	–
